Measurements: US12428455B2, “Dominant negative CEBPB and CEBPD proteins and methods of use for decreasing viability of neoplastic cells” (The Trustees of Columbia University in the City of New York, priority 2018, dated 2025)
No end group written: not given here.

What was measured:
MDA-MB 231 cells [1] = experiment: Scratch migration assay, MDA-MB 231; type: cell-based; details: 20 hours, 20 μM or 40 μM
Description: Monolayers of MDA-MB 231 or T98G cells were subjected to formation of a scratch at 0 time and cultured for 20 hours in 20 μM or 40 μM CP-DN-CEBPB and CP-DN-CEBPD. Multiple images taken at 0 time and after 20 hours were analyzed for gap width of the scratches into which cells migrated or not. Example images for T98G are found in FIG. 22A, with compiled data for the T98G samples in FIG. 22B. Example images for MDA-MB 231 are found in FIG. 22C, with compiled data for the MDA-MB 231 samples in FIG. 22D.

HCT116 cells [2] = experiment: Combination with gamma radiation, cell number, HCT116; type: cell-based; details: 2 Gy or 5 Gy; peptide 0.05, 0.5 or 5 μM one day later, 6 days; CI<1 indicates synergism
Description: Replicate cultures of T98G and HCT116 cells were exposed to 2 Gy or 5 Gy of gamma radiation. One day later, the cultures were treated with 0.05 μM, 0.5 μM, or 5 μM CP-dn-CEBPB and CP-dn-CEBPD peptides, maintained for 6 days, and then assessed for cell number. The bar graphs of FIGS. 24A (T98G, CP-dn-CEBPB), 24C (T98G, CP-dn-CEBPBD, 24E (HCT116, CP-dn-CEBPD), and 24G (HCT116, CP-dn-CEBPD) show relative cell numbers for each condition as compared to untreated controls. The line graphs of FIGS. 24B (T98G, CP-dn-CEBPB), 24D (T98G, CP-dn-CEBPBD, 24F (HCT116, CP-dn-CEBPB), and 24H (HCT116, CP-dn-CEBPD) show the response as normalized in each case so that 100 represents the relative number of surviving cells that received the indicated level of radiation treatment, but no peptide treatment. Calculated Combination Indexes (CI) are T98G, CI=0.61±0.05 for CP-dn-CEBPB, 0.68±0.07 for CP-dn-CEBPD; HCT116, 0.89±0.04 for CP-dn-CEBPB, 0.86±0.05 for CP-dn-CEBPD. CI=1 indicates additivity; CI<1 indicates synergism; CI>1 indicates antagonism.

HCT116 cells [3] = experiment: Colony forming activity on culture plates, HCT116; type: cell-based; details: 6 days; doses 0.05, 0.5 and 5 μM
Description: T98G (FIG. 21A), MDA-MB 231 (FIG. 21B), and HCT116 (FIG. 21C) cells were exposed to CP-DN-CEBPB and CP-DN-CEBPD for 6 days at doses of 0.05 μM 0.5 μM, and 5 μM while growing in soft agar. Growth was inhibited by does as low as 0.5 μM. T98G (FIG. 21D), MDA-MB 231 (FIG. 21E), and HCT116 (FIG. 21F) cells were exposed to CP-DN-CEBPB and CP-DN-CEBPD for 6 days at doses of 0.05 μM 0.5 μM, and 5 μM while growing on culture plates. Growth was inhibited by does as low as 0.5 μM.

A375 melanoma cells = experiment: Cell number after peptide treatment, A375; type: cell-based; details: 6 days, 0 μM to 50 μM; stock without BSA
Description: Replicate cultures were exposed to the peptides the for 6 days at the indicated concentrations. Stock solutions of the peptides were prepared in buffer without added bovine serum albumin (BSA).

T98G cells = experiment: Apoptotic nuclei, propidium iodide flow cytometry, T98G; type: cell-based; details: 20 μM, 3 days, vs untreated cells
Description: (§1) MDA-MB-231, MCF7, HCT116 and T98G cancer cell lines were treated for 3 days with 20 μM CP-dn-CEBPB and CP-dn-CEBPD peptides from stock solutions prepared without additives. Cultures were stained with propidium iodide and assessed for proportion of cells with apoptotic nuclei by flow cytometry.

[4] = Solubility of peptide stock after dilution; type: physicochemical; details: 20 mM of each of arginine and glutamate added to peptide stock buffer
Description: In some implementations, the mixture of arg/glu may be added at a molarity of, or of about 5 mM, 10 mM, 15 mM, 20 mM, 25 mM, or 30 mM.

HCT116 cells [5] = experiment: Apoptotic nuclei, propidium iodide flow cytometry, HCT116; type: cell-based; details: 20 μM, 3 days, vs untreated cells
Description: as §1

MDA-MB 231 cells [6] = experiment: Combination with chloroquine, cell number, MDA-MB 231; type: cell-based; details: 5 μM or 10 μM chloroquine and 3 μM or 10 μM peptide, 6 days
Description: Replicate cultures of T98G, MDA-MB 231, and HCT116 cells were treated with 5 μM or 10 μM chloroquine and 3 μM or 10 μM CP-dn-CEBPB and CP-dn-CEBPD peptides, maintained for 6 days, and then assessed for cell number. The bar graphs of FIGS. 29A (T98G, CP-dn-CEBPB), 29C (T98G, CP-dn-CEBPBD, 29E (MDA-MB-231, CP-dn-CEBPBD), 29G (MDA-MB-231, CP-dn-CEBPD), 29I (HCT116, CP-dn-CEBPBB), and 26K (HCT116, CP-dn-CEBPBD) show relative cell numbers for each condition as compared to untreated controls. The line graphs of FIGS. 26B (T98G, CP-dn-CEBPB), 26D (T98G, CP-dn-CEBPBD), 26F (MDA-MB-231, CP-dn-CEBPB), 26H (MDA-MB-231, CP-dn-CEBPD), 26J (HCT116, CP-dn-CEBPB), and 26L (HCT116 CP-dn-CEBPBD) show the response as normalized in each case so that 100 represents the relative number of surviving cells that received the indicated level of chloroquine, but no peptide treatment. The results ranged from near-additive (HCT116 cells, CI=0.92±0.08 for CP-dn-CEBPB and 0.87±0.07 for CP-dn-CEBPD) to apparent synergy (T98G, CI=0.56±0.06 for CP-dn-CEBPB and 0.75±0.03 for CP-dn-CEBPD; MDA-MB-261, CI=0.59±0.11 for CP-dn-CEBPB and 0.47±0.05 for CP-dn-CEBPD).

IL8 = experiment: qPCR for IL8 mRNA; type: cell-based; details: 20 μM, 3 days; T98G, MDA-MB-231, MCF7, A375 and HCT116 cells
Description: T98G, MDA-MB-231, MCF7, A375, and HCT116 cells were treated with or without 20 μM CP-dn-CEBPB or CP-dn-CEBPD for 3 days and then assessed by qPCR for relative levels of IL6 (FIG. 32A, T98G; FIG. 32B, MDA-MB-231; FIG. 32C, MCF7; FIG. 32D, A375; FIG. 32E, HCT116) and IL8 mRNA (FIG. 32F, T98G; FIG. 32G, MDA-MB-231; FIG. 32H, MCF7; FIG. 32I, A375; FIG. 32J, HCT116).

| Sequence | cell migration into scratch (gap width) (MDA-MB 231 cells [1]) | Combination Index (CI) with gamma radiation (HCT116 cells [2]) | lowest dose at which growth was inhibited, culture plates (HCT116 cells [3]) [µM] | growth and survival of A375 cells (A375 melanoma cells) | proportion of cells with apoptotic nuclei (T98G cells) | solubility after dilution to the concentration applied to cultured LN229 cells [4] | proportion of cells with apoptotic nuclei (HCT116 cells [5]) | CI with chloroquine (MDA-MB 231 cells [6]) | relative levels of IL8 mRNA (IL8) |
| --- | --- | --- | --- | --- | --- | --- | --- | --- | --- |
| RQIKIWFQNRRMKWKKLETQHKVLELTAENERLQKKVEQLSRELSTLRNLFKQL [CP-DN-CEBPB] | able to inhibit migration | 0.89±0.04 | 0.5 | decrease in growth and survival | increased apoptotic cell death | maintained solubility | increased apoptotic cell death | 0.59±0.11 | suppress expression |
| RQIKIWFQNRRMKWKKLVELSAENEKLHQRVEQLTRDLAGLRQFFK [CP-DN-CEBPD] | able to inhibit migration | 0.86±0.05 | 0.5 | decrease in growth and survival | increased apoptotic cell death | maintained solubility | increased apoptotic cell death | 0.47±0.05 | suppress expression |
